This note sets out measurements from publication PMC11984388, “A brain-accessible peptide modulates stroke inflammatory response and neurotoxicity by targeting BDNF-receptor TrkB-T1 specific interactome” (Theranostics, 2025).

For data set [1], the system named is RhoGDI. The experiment in a line: Western blot of total RhoGDI levels. It is filed as cell-based, rat. The conditions noted are these: peptide 25 µM 30 min, mean, n = 6-7 (Fig S3). On the procedure:
Ce lls were lyse d in RI P A buffer (50 mM Tris-HCl pH 8.0, 150 mM NaC l, 1% sodium deoxycholate , 1% NP-40, 0.1% SDS, 1 mM DT T), supple me nted with protease and phospha tase inhibitors as above, for 30 min at 4 °C. Then, cell lysa te s were sonic ated using a Bioruptor apparatus and centrifuga ted at 4 °C for 20 min at 10,000 rpm. The protein conce ntration in lysa te s was es tablished with BC A Prote in As say Kit (Thermo Fisher) follow ed by 5 min denaturalization in SDS-sa mple buffer at 95º. Equal amounts of total lysa te s were resolved in Tris-Glycine SDS-PAGE and transferre d to a nitroc ellulos e membrane (GE Healthca re ) in 25 mM Tris HCl pH 8.3, 250 mM glycine and 10% methanol, using an electr ic curre nt of 400 mA for 70 min. After transfer, membranes were sta ine d with a Ponceau S solution to chec k for its effic acy. Then, membranes were blocked for 30 min with a 5% non-fat […]
dry milk solution in Tris Buffere d Saline-Tween (TBS-T, 20 mM Tris HCl pH 7.5, 137 mM NaC l, 0.05% Tween-20) and incubated overnight at 4°C with prima ry antibodies . Next, membranes were was hed with TBS-T and incubated with the appropria te anti-rabbit or anti-mouse peroxidase-conjugated se condary antibodies (Bethyl) for 1 h. To conclude, immunore activity was detecte d using Clar ity Wes ter n ECL Blotting Substrate (BioRad) and band intensity was quantified by dens itome tric analys is (Photos hop, Adobe). Levels of the protein of interest were normalized using those of neuron- spe cific enolas e (NSE) present in the sa m e sa mple and express ed relative to values obtained in their respec tive controls, arbitrarily given a 100% value. NSE was use d as a neuronal loading control sinc e it is not af fe cted by NM DA treatment. Exceptionally, levels of TrkB -T1 were normalized to those of ß- actin in the comparison of prima ry mixed cultures and those of as trocytes . Multiple independent experiments were car r ied out and quantitated as detailed in the figure legends .
Cell transfection and gene reporter ass ays
Plasmids contained minimal CREB or MEF2 response elements upstream firefly luciferase reporter gene (respectively, pCRE or pMEF2; see details in Supplementary Table 1). Primary cultures, without the AraC treatment, were transfected at 11 DIVs with 0.4 µg of plasmids using Lipofectamine 2000. […] Protein extracts were obtained using Passive Lysis Buffer (Promega, Cat# E1941) and luciferase activity was detected by a luminometer (GloMax 96 microplate luminometer, Promega), using REAP buffer (25 mM glycylglycine, 15 mM SO4Mg, 4 mM EGTA, 15 mM potassium phosphate pH 7.8, 3.3 mM ATP, 1 mM DTT, 75 µM luciferin). […]

Data set [2] deals with NeuN+ neurons and GFAP+ astrocytes of mixed cortical cultures. The experiment in a line: Peptide visualization in primary cultures (Fluorescein Avidin D). Format: cell-based, rat. The conditions noted are these: peptide 25 µM, 30 min; Fluorescein Avidin D with NeuN and GFAP double staining (Fig 1C).
Data set [3] concerns primary cortical cultures. As to conditions: 25 µM.
In data set [4] the test system is GFAP+/C3+ cells. Put plainly: Immunohistochemistry of reactive astrocytes in ischemic brain. Format: in vivo, mice. The conditions noted are these: 3 nmol/g 1 h after damage; early after injury (5 h); versus TMyc. On the procedure: (§1) The brains of animals injected one hour af ter the initiation of the photothrombotic damage with vehicle (saline), TMyc or TT1Ct (3 nmol/g) were process ed and cryoprote cted as before indicated. The duration of damage before sa cri f i ce was 5 h (male and female) or 24 h (male).
(§2) Coronal froze n se ctions were incubated with blocking solution as des cribe d in flota tion for 1 h at room temperature and then overnight with prima ry antibodies diluted in 4% goat se rum and 0.3% Triton X-100 in PBS at 4°C. After was hing, slides were incubated 1 h with Alexa Fluor 546- conjugated goat anti-rabbit or AlexaFluor 647- conjugated goat anti-mouse se condary antibodies to visua liz e the prima ry antibodies and DAPI (5 μg/ml). Only for Iba1 sta ining, blocking solution was 2.5% BS A, 5% goat se rum, 0.5% Triton X-100 in PBS, and se ctions were incubated with prima ry antibody 24 h at RT follow ed by was hing and Alexa Fluor 546-conjugated goat anti-rabbit and DAPI incubation for 1 h. Sections were then was hed in PBS, mounted on slides , dried for 15 min at 37 °C on a hot plate, or air dried overnight and then cover slipped with DPX or Prolong Diamond. Ce ll Obs erve d images were obtained with Zeiss microscope Observe r.Z1 using a 10x Plan-Apochromatic objective. […]

Data set [5] deals with Iba1. The experiment in a line: Immunohistochemistry of microglia in ischemic brain. As to conditions: male mice, 3 nmol/g, 24 h of insult; versus TMyc. Format: in vivo. On the procedure:
as §1, §2

Setting [6] is: then BDNF 100 ng/ml 30 min, relative to basal Bio-TMyc (100%).

Where two headings read alike, the source gives them in different places. Residues, ends and D or L forms follow the SMILES beside them. *: point of attachment. Biotin = O=C1N[C@H]2[C@H](CS[C@H]2CCCCC(=O)*)N1

Consider `CC[C@H](C)[C@H](NC(=O)[C@H](CCCCN)NC(=O)[C@H](Cc1c[nH]cn1)NC(=O)[C@H](Cc1ccccc1)NC(=O)[C@H](CC(C)C)NC(=O)[C@@H](NC(=O)[C@H](Cc1ccccc1)NC(=O)[C@H](CCCNC(=N)N)NC(=O)[C@H](CCCNC(=N)N)NC(=O)[C@H](CCCNC(=N)N)NC(=O)[C@H](CCC(N)=O)NC(=O)[C@H](CCCNC(=N)N)NC(=O)[C@H](CCCNC(=N)N)NC(=O)[C@H](CCCCN)NC(=O)[C@H](CCCCN)NC(=O)[C@H](CCCNC(=N)N)NC(=O)CNC(=O)[C@H](Cc1ccc(O)cc1)NC(=O)CCCC[C@@H]1SC[C@@H]2NC(=O)N[C@@H]21)C(C)C)C(=O)N1CCC[C@H]1C(=O)N[C@@H](CC(C)C)C(=O)N[C@@H](CC(=O)O)C(=O)NCC(N)=O` [Bio-sTT1Ct] (Biotin-YGRKKRRQRRRFVLFHKIPLDG-NH2), for which the RhoGDI total levels in data set [1] (setting [6]) stood at 93%; in data set [1] (then NMDA 30 min, relative to basal Bio-TMyc (100%)), 91%. Also, the “Peptide entry into neurons and astrocytes” value in data set [2] was “found inside both NeuN+ (arrowheads) and GFAP+ (asterisks) cells”. Further, the figures for the “Relative cell viability (%)” value in data set [3] (6 h) and in data set [3] (24 h) were 99% and 103%, respectively.

`CC[C@H](C)[C@H](NC(=O)[C@H](CC(C)C)NC(=O)[C@H](CCCCN)NC(=O)[C@H](CCC(N)=O)NC(=O)[C@H](CCC(=O)O)NC(=O)[C@H](CCC(=O)O)NC(=O)[C@H](C)NC(=O)[C@H](CCCNC(=N)N)NC(=O)[C@H](CCCNC(=N)N)NC(=O)[C@H](CCCNC(=N)N)NC(=O)[C@H](CCC(N)=O)NC(=O)[C@H](CCCNC(=N)N)NC(=O)[C@H](CCCNC(=N)N)NC(=O)[C@H](CCCCN)NC(=O)[C@H](CCCCN)NC(=O)[C@H](CCCNC(=N)N)NC(=O)CNC(=O)[C@H](Cc1ccc(O)cc1)NC(=O)CCCC[C@@H]1SC[C@@H]2NC(=O)N[C@@H]21)C(=O)N[C@@H](CO)C(=O)N[C@@H](CCC(=O)O)C(=O)N[C@@H](CCC(=O)O)C(=O)N[C@@H](CC(=O)O)C(=O)N[C@@H](CC(C)C)C(=O)N[C@@H](CC(C)C)C(=O)N[C@@H](CCCNC(=N)N)C(N)=O` [Bio-TMyc, reference compound] (Biotin-YGRKKRRQRRRAEEQKLISEEDLLR-NH2): the RhoGDI total levels in data set [1] (basal, relative to basal conditions with Bio-TMyc (100%)) came out at 100%; in data set [1] (setting [6]) it was 92%. In addition, the “Peptide entry into neurons and astrocytes” value in data set [2] was “found inside both NeuN+ (arrowheads) and GFAP+ (asterisks) cells”. The “Relative cell viability (%)” value in data set [3] (4 h) is reported as 100%; in data set [3] (6 h), 97%; in data set [3] (24 h), 97%.

Regarding Ac-YGRKKRRQRRRPPFVLFHKIPLDG-NH2 [TT1Ct], in data set [4], the “Effect on GFAP+/C3+ cells at the infarct boundary” value was “strong decrease”. Moreover, in data set [5], the “Effect on Iba1 in reactive microglia” value was “limited Iba1 upregulation”.
